Reference: US20230270804A1, “ANTI-HYPERCHOLESTEROLEMIA COMPOSITION AND A METHOD OF MANUFACTURING THE SAME” (NBI BIOSCIENCES PRIVATE LIMITED, priority 2020, published 2023)

Tests used:
Type in all cases: in vivo, Wistar strain albino rats
[1] = system: hypercholesterolemia induced wistar rat's models; experiment: Prophylactic study: lipid profile (TC, TG, HDL-C, LDL-C, VLDL); conditions: for HDL-C / LDL-C / TC / TG / VLDL: HFD+normal diet
Method: (§1) Wistar strain albino rats of body weight ranging from 190-225 g were selected for the present study. The temperature and humidity were kept at optimum (22+2° C.; 40-70% and animals were exposed to natural chronological day night cycles. The experiments were carried out in conformity with the Institutional Animal Ethics Committee.
(§2) The 6 groups were as follows: • 1. Normal Control • 2.
(§3) 1.5-2 ml blood sample was taken from retino-orbital chamber in vials for biochemical estimations at every 15 days. Investigations performed included detailed Total Cholesterol—TC (mg/dl), Triglyceride—TG (mg/dl), High Density Lipoprotein—HDL-C (mg/dl), Low Density Lipoprotein—LDL-C (mg/dl), Very Low-Density Lipoprotein—VLDL (mg/dl), WBC (10^3/u1), RBC (10^6/u1), Hb (g/dl), PCV (%), Reticulocyte (%), Platelet count 10^5/mm^3, Clotting time (Sec), Neutrophils, Lymphocyte, Monocyte and Eosinophil. The estimations were done with Ecoline kits from Erba Mannheim, ERBA diagnostics Mannheml, Germany using Semi Autoanalyzer RX50 of MicroLabs Instruments and COUNCELL21 of Tulip Diagnostics Pvt. Ltd. Lipid peroxidation (Plasma & Liver), HMG Co-Reductase, Creatine phosphokinase (CPK), Lactate dehydrogenase (LDH), SGOT and SGPT were estimated at the end of both the studies using the kits.

[2] = system: Creatine phosphokinase (CPK), Lactate dehydrogenase (LDH), SGOT and SGPT; experiment: Prophylactic study: CPK, LDH, SGOT, SGPT
Method: as §3

[3] = Therapeutic study: hematological parameters; conditions: for Lymphocyte / Neutrophils: in % (unit assumed); for Eosinophil: unit assumed
Method: as §1, §2, §3

[4] = HFD+normal diet, after sacrifice

Structure (SMILES): CC(C)c1c(C(=O)Nc2ccccc2)c(-c2ccccc2)c(-c2ccc(F)cc2)n1CC[C@@H](O)C[C@@H](O)CC(=O)O [Statin, Atorvastatin]
- HDL-C ([1]; day 0): 34.60 ± 1.50 mg/dL
- LDL-C ([1]; day 0): 47.10 ± 1.25 mg/dL
- TC ([1]; day 0): 81.95 ± 1.35 mg/dL
- TG ([1]; day 0): 16.75 ± 1.10 mg/dL
- VLDL ([1]; day 0): 2.48 ± 0.15 mg/dL
- HDL-C ([1]; day 15): 31.56 ± 1.26 mg/dL
- LDL-C ([1]; day 15): 48.68 ± 0.29 mg/dL
- TC ([1]; day 15): 85.24 ± 1.55 mg/dL
- VLDL ([1]; day 15): 2.86 ± 0.35 mg/dL
- HDL-C ([1]; day 30): 35.66 ± 2.08 mg/dL
- LDL-C ([1]; day 30): 56.60 ± 4.50 mg/dL
- TC ([1]; day 30): 85.66 ± 4.04 mg/dL
- TG ([1]; day 30): 22.66 ± 3.10 mg/dL
- VLDL ([1]; day 30): 2.96 ± 0.02 mg/dL
- HDL-C ([1]; day 45): 38.33 ± 5.85 mg/dL
- LDL-C ([1]; day 45): 57 ± 4.0 mg/dL
- TC ([1]; day 45): 87.5 ± 5.04 mg/dL
- TG ([1]; day 45): 24.86 ± 4.20 mg/dL
- VLDL ([1]; day 45): 3.03 ± 0.19 mg/dL
- HDL-C ([1]; day 60): 39.60 ± 5.57 mg/dL
- LDL-C ([1]; day 60): 57.23 ± 4.43 mg/dL
- TC ([1]; day 60): 88.5 ± 4.44 mg/dL
- TG ([1]; day 60): 24.4 ± 4.61 mg/dL
- VLDL ([1]; day 60): 3.0 ± 0.13 mg/dL
- HDL-C ([1]; day 75): 33.53 ± 1.92 mg/dL
- LDL-C ([1]; day 75): 55.27 ± 4.39 mg/dL
- TC ([1]; day 75): 90.95 ± 2.05 mg/dL
- TG ([1]; day 75): 22.67 ± 4.16 mg/dL
- VLDL ([1]; day 75): 2.98 ± 0.84 mg/dL
- HDL-C ([1]; day 90): 34.26 ± 1.26 mg/dL
- LDL-C ([1]; day 90): 52.83 ± 1.76 mg/dL
- TC ([1]; day 90): 90.22 ± 2.10 mg/dL
- TG ([1]; day 90): 21.93 ± 3.90 mg/dL
- VLDL ([1]; day 90): 3.12 ± 0.79 mg/dL
- increase in TC ([1]; prophylactic study, after HFD diet treatment): 10%
- Creatine phosphokinase [2, 4]: 1.33 ± 0.04 U/ml
- LDH [2, 4]: 278.50 ± 5.50 U/ml
- SGOT [2, 4]: 59.03 ± 1.49 U/ml
- SGPT [2, 4]: 55.63 ± 0.51 U/ml
- Inhibition in SGPT activity ([2]; prophylactic study, composition twice a day): 20%
- Clotting time ([3]; HFD continued, day 0): 113.33 ± 1.15 s
- Hb ([3]; HFD continued, day 0): 12.30 ± 0.20 g/dL
- Monocyte ([3]; HFD continued, day 0): 1.35%
- PCV ([3]; HFD continued, day 0): 42.57 ± 1.36%
- Platelet count ([3]; HFD continued, day 0): 1070 ± 13.9 10³/µL
- RBC ([3]; HFD continued, day 0): 7.93 ± 0.15 10^6/μl
- Reticulocyte ([3]; HFD continued, day 0): 1.28 ± 0.03%
- Lymphocyte ([3]; HFD continued, day 0): 72
- Neutrophils ([3]; HFD continued, day 0): 25.5
- Eosinophil ([3]; HFD continued, day 0): 1.25%
- Clotting time ([3]; HFD continued, day 15): 114.33 ± 1.15 s
- Hb ([3]; HFD continued, day 15): 12.40 ± 0.20 g/dL
- Monocyte ([3]; HFD continued, day 15): 1.35%
- PCV ([3]; HFD continued, day 15): 43.43 ± 1.53%
- Platelet count ([3]; HFD continued, day 15): 1070 ± 11.6 10³/µL
- RBC ([3]; HFD continued, day 15): 8.07 ± 0.15 10^6/μl
- WBC ([3]; HFD continued, day 15): 8.58 ± 0.32 103/μl
- Lymphocyte ([3]; HFD continued, day 15): 72
- Neutrophils ([3]; HFD continued, day 15): 25.5
- Eosinophil ([3]; HFD continued, day 15): 1.25%
- Clotting time ([3]; HFD continued, day 30): 114.37 ± 0.71 s
- Hb ([3]; HFD continued, day 30): 12.83 ± 0.25 g/dL
- PCV ([3]; HFD continued, day 30): 42.85 ± 0.25%
- Platelet count ([3]; HFD continued, day 30): 1087 ± 3.61 10³/µL
- RBC ([3]; HFD continued, day 30): 7.95 ± 0.03 10^6/μl
- Reticulocyte ([3]; HFD continued, day 30): 1.31 ± 0.03%
- WBC ([3]; HFD continued, day 30): 8.72 ± 0.07 103/μl
- Lymphocyte ([3]; HFD continued, day 30): 71.2
- Neutrophils ([3]; HFD continued, day 30): 26
- Eosinophil ([3]; HFD continued, day 30): 1.28%
- Clotting time ([3]; HFD continued, day 45): 114.40 ± 0.46 s
- Hb ([3]; HFD continued, day 45): 12.88 ± 0.28 g/dL
- Monocyte ([3]; HFD continued, day 45): 1.33%
- PCV ([3]; HFD continued, day 45): 42.93 ± 0.42%
- Platelet count ([3]; HFD continued, day 45): 1080 ± 14.5 10³/µL
- RBC ([3]; HFD continued, day 45): 7.90 ± 0.05 10^6/μl
- Reticulocyte ([3]; HFD continued, day 45): 1.33 ± 0.02%
- WBC ([3]; HFD continued, day 45): 8.65 ± 0.08 103/μl
- Lymphocyte ([3]; HFD continued, day 45): 71.67
- Neutrophils ([3]; HFD continued, day 45): 25.73
- Eosinophil ([3]; HFD continued, day 45): 1.27%
- Clotting time ([3]; HFD continued, day 60): 113.33 ± 1.24 s
- Hb ([3]; HFD continued, day 60): 12.76 ± 0.28 g/dL
- PCV ([3]; HFD continued, day 60): 42.53 ± 0.57%
- Platelet count ([3]; HFD continued, day 60): 1070 ± 17 10³/µL
- RBC ([3]; HFD continued, day 60): 7.83 ± 0.09 10^6/μl
- WBC ([3]; HFD continued, day 60): 8.57 ± 0.12 103/μl
- Lymphocyte ([3]; HFD continued, day 60): 71.67
- Neutrophils ([3]; HFD continued, day 60): 25.70
- Eosinophil ([3]; HFD continued, day 60): 1.28%
- Clotting time ([3]; HFD discontinued, day 0): 113.33 ± 1.53 s
- Hb ([3]; HFD discontinued, day 0): 12.53 ± 0.38 g/dL
- Monocyte ([3]; HFD discontinued, day 0): 1.35%
- PCV ([3]; HFD discontinued, day 0): 41.43 ± 1.07%
- Platelet count ([3]; HFD discontinued, day 0): 1080 ± 11 10³/µL
- RBC ([3]; HFD discontinued, day 0): 7.73 ± 0.52 10^6/μl
- Reticulocyte ([3]; HFD discontinued, day 0): 1.24 ± 0.04%
- WBC ([3]; HFD discontinued, day 0): 8.67 ± 0.59 103/μl
- Lymphocyte ([3]; HFD discontinued, day 0): 72
- Neutrophils ([3]; HFD discontinued, day 0): 25.87
- Eosinophil ([3]; HFD discontinued, day 0): 1.25%
- Clotting time ([3]; HFD discontinued, day 15): 113.50 ± 1.00 s
- Hb ([3]; HFD discontinued, day 15): 12.58 ± 0.08 g/dL
- Monocyte ([3]; HFD discontinued, day 15): 1.35%
- PCV ([3]; HFD discontinued, day 15): 41.63 ± 1.02%
- Platelet count ([3]; HFD discontinued, day 15): 1087 ± 8.02 10³/µL
- RBC ([3]; HFD discontinued, day 15): 7.97 ± 0.32 10^6/μl
- Reticulocyte ([3]; HFD discontinued, day 15): 1.26 ± 0.01%
- WBC ([3]; HFD discontinued, day 15): 8.57 ± 0.42 103/μl
- Lymphocyte ([3]; HFD discontinued, day 15): 72
- Neutrophils ([3]; HFD discontinued, day 15): 25.97
- Eosinophil ([3]; HFD discontinued, day 15): 1.25%
- Clotting time ([3]; HFD discontinued, day 30): 113.00 ± 0.70 s
- Hb ([3]; HFD discontinued, day 30): 12.62 ± 0.07 g/dL
- PCV ([3]; HFD discontinued, day 30): 41.64 ± 0.07%
- Platelet count ([3]; HFD discontinued, day 30): 1086 ± 8.19 10³/µL
- RBC ([3]; HFD discontinued, day 30): 7.73 ± 0.03 10^6/μl
- Reticulocyte ([3]; HFD discontinued, day 30): 1.27 ± 0.02%
- WBC ([3]; HFD discontinued, day 30): 8.58 ± 0.04 103/μl
- Lymphocyte ([3]; HFD discontinued, day 30): 71.3
- Neutrophils ([3]; HFD discontinued, day 30): 26.1
- Eosinophil ([3]; HFD discontinued, day 30): 1.26%
- Clotting time ([3]; HFD discontinued, day 45): 113.17 ± 0.35 s
- Hb ([3]; HFD discontinued, day 45): 12.87 ± 0.26 g/dL
- Monocyte ([3]; HFD discontinued, day 45): 1.27%
- PCV ([3]; HFD discontinued, day 45): 41.42 ± 0.50%
- Platelet count ([3]; HFD discontinued, day 45): 1070 ± 18.7 10³/µL
- RBC ([3]; HFD discontinued, day 45): 7.65 ± 0.08 10^6/μl
- Reticulocyte ([3]; HFD discontinued, day 45): 1.28 ± 0.07%
- WBC ([3]; HFD discontinued, day 45): 8.51 ± 0.14 103/μl
- Lymphocyte ([3]; HFD discontinued, day 45): 71.58
- Neutrophils ([3]; HFD discontinued, day 45): 25.9
- Eosinophil ([3]; HFD discontinued, day 45): 1.25%
- Clotting time ([3]; HFD discontinued, day 60): 112.04 ± 1.28 s
- Hb ([3]; HFD discontinued, day 60): 12.74 ± 0.27 g/dL
- Monocyte ([3]; HFD discontinued, day 60): 1.25%
- PCV ([3]; HFD discontinued, day 60): 41.01 ± 0.64%
- Platelet count ([3]; HFD discontinued, day 60): 1060 ± 20.3 10³/µL
- RBC ([3]; HFD discontinued, day 60): 7.57 ± 0.11 10^6/μl
- Reticulocyte ([3]; HFD discontinued, day 60): 1.26 ± 0.06%
- WBC ([3]; HFD discontinued, day 60): 8.42 ± 0.16 103/μl
- Lymphocyte ([3]; HFD discontinued, day 60): 71.70
- Neutrophils ([3]; HFD discontinued, day 60): 25.81
- Eosinophil ([3]; HFD discontinued, day 60): 1.24%
